Results on 80 molecules are retold here after paper PMC12040169 (PLOS Biology, 2025).

One data set in a line: in vitro. The conditions noted are these: human, hela cells, % viability.
For the molecule `CC(C)OC(=O)C(NC(=O)OC(C)(C)C)c1ccccc1` (centres unmarked) [CBK170399], the viability at 28.5 h, 10 µM was 90.4%.
On to `CCOC(=O)N1CCC(Nc2nc3ccccc3nc2OCc2cc(C)on2)CC1` [CBK171825], for which the viability at 28.5 h, 10 µM amounted to 89.2%.
On the same count and under the same terms, next, `CCC(=O)N1CCC(NC(=O)N(CCc2ccccn2)Cc2ccccc2)CC1` [CBK171898]: 90.9%; `Cn1cccc1C(=O)N1CCC(OCc2cnc(-c3ccc(S(C)(=O)=O)cc3)cn2)CC1` [CBK172007]: 106%; `CC1(COC(=O)N2CCC(OCc3cnc(-c4ccc(S(C)(=O)=O)cc4)cn3)CC2)COC1` [CBK172009]: 86.7%.
As to `Fc1ccccc1C1CCN(c2cncc(N3CCNCC3)n2)CC1` [CBK172236G], the viability at 28.5 h, 10 µM stood at 122%.
Take `CC(C)(C)OC(=O)N(c1cncc(N2CCNCC2)n1)[C@@H]1CCOc2ccccc21` [CBK172251G]: the viability at 28.5 h, 10 µM was determined as 109%.
On to `c1ccc2c(c1)CCC(Oc1cncc(N3CCNCC3)n1)C2` (centres unmarked) [CBK172295G], for which the viability at 28.5 h, 10 µM came to 97%.
`COc1cccc2c1OCC[C@@H]2Oc1cncc(N2CCNCC2)n1` [CBK172305G]: the viability at 28.5 h, 10 µM was 106%.
In the case of `Clc1ccc2c(c1)OCC[C@@H]2Oc1cncc(N2CCNCC2)n1` [CBK172313G], the viability at 28.5 h, 10 µM was determined as 86.2%.
In the case of `Cc1ccc2c(c1)C(Oc1cncc(N3CCNCC3)n1)CCO2` (centres unmarked) [CBK172334G], the viability at 28.5 h, 10 µM was found to be 99.7%.
For the molecule `c1ccc(N2CCOCC2)c(COc2cncc(N3CCNCC3)n2)c1` [CBK172351G], the viability at 28.5 h, 10 µM is 105%.
For the molecule `CC(C)(C)OC(=O)N1CCN(c2cncc(OC3CSCc4ccccc43)n2)CC1` (centres unmarked) [CBK172354], the viability at 28.5 h, 10 µM came to 105%.
`Cc1sc(-c2ccc(C(F)(F)F)cc2)nc1COc1cncc(N2CCNCC2)n1` [CBK172383G]: the viability at 28.5 h, 10 µM was determined as 85.6%.
On to `c1ccc2c(c1)CCC[C@H]2Oc1cncc(N2CCNCC2)n1` [CBK172388G], for which the viability at 28.5 h, 10 µM worked out at 90.7%.
Take `N[C@H](CCc1nc2ccccc2[nH]1)C(=O)O` [CBK172614]: the viability at 28.5 h, 10 µM came to 98.2%.
Take `C[S+]([O-])c1ccc(-c2ccc(CN(C3CC3)C3CCN(c4ncccn4)CC3)cn2)cc1` (centres unmarked) [CBK172877]: the viability at 28.5 h, 10 µM turned out to be 90.2%.
As for `N#CCc1c(-c2ccc(Br)cc2)nc2ccccn12` [CBK172896], the viability at 28.5 h, 10 µM stood at 100%.
As to `CN(Cc1cnc(-c2ccncc2)cn1)C1CCN(C(=O)OC(C)(C)C)CC1` [CBK172979], the viability at 28.5 h, 10 µM worked out at 93.4%.
The same measure, in the same setting: next, `Cc1ccc(S(=O)(=O)Nc2ccc3c(ccn3CCC3CCN(C(=O)OC(C)(C)C)CC3)c2)cc1Cl` [CBK172990]: 94.6%; `CC(C)(C)OC(=O)N1CCC(C(Cc2ccc(-c3ccc(S(C)(=O)=O)cc3)cc2)C(=O)NCCOCCO)CC1` (centres unmarked) [CBK173128]: 83.7%; `COCCNC(=O)C(Cc1ccc(-c2ccc(S(C)(=O)=O)cc2)cc1)C1CCN(C(=O)OC(C)(C)C)CC1` (centres unmarked) [CBK173129]: 125%.
Turning to `CC(C)(C)OC(=O)N1CCC(C2OCc3cc(C(=O)N4CCNC(=O)C4)ccc3O2)CC1` (centres unmarked) [CBK173277], the viability at 28.5 h, 10 µM was found to be 105%.
In the case of `CCN(CC)C(=O)C1CCCN(C(=O)c2ccc3c(c2)COC(C2CCN(C(=O)OC(C)(C)C)CC2)O3)C1` (centres unmarked) [CBK173279], the viability at 28.5 h, 10 µM is 100%.
As to `CC(C)COC(=O)N1CCN(C2CCc3cc(-c4ccc([S+](C)[O-])cc4)ccc3C2)CC1` (centres unmarked) [CBK173425], the viability at 28.5 h, 10 µM was 89.8%.
Same read-out and setting: next, `CC(C)(C)OC(=O)N1CCC(C2OCc3cc(-c4ccc(C(=O)N5CCOCC5)o4)ccc3O2)CC1` (centres unmarked) [CBK173615]: 85.6%.
Still for that read-out and setting: next, `CNC(=O)c1ccc(-c2cnc(NCC3CCN(C(=O)OC(C)(C)C)CC3)cn2)cc1` [CBK173726]: 111%; `Cc1cc(COc2nc3ccccc3nc2N2CCCC2C(=O)OC(C)(C)C)no1` (centres unmarked) [CBK173753]: 85.8%.
As for `CCCNCCc1ccc(NC(=O)NCCc2ccccc2)cc1` [CBK173873T], the viability at 28.5 h, 10 µM was 93.5%.
As to `Cc1cc(COc2nc3ccccc3nc2NCCC2=CCCCC2)no1` [CBK173982], the viability at 28.5 h, 10 µM was 115%.
Consider `Cc1cc(COc2nc3ccccc3nc2NCCCCO)no1` [CBK173985], for which the viability at 28.5 h, 10 µM was determined as 94.1%.
For `Cc1cc(COc2nc3ccccc3nc2NCCC(C)O)no1` (centres unmarked) [CBK173999], the viability at 28.5 h, 10 µM stood at 95.7%.
Turning to `Cc1cc(COc2nc3ccccc3nc2NC(C)C(C)C)no1` (centres unmarked) [CBK174007], the viability at 28.5 h, 10 µM was found to be 117%.
For `CN(C)CCNC(=O)c1ccc(-c2ccccc2S(=O)(=O)Nc2ccc(C(=O)O)c(O)c2)cc1` [CBK174050], the viability at 28.5 h, 10 µM was 106%.
`NC1CCN(c2ncccn2)CC1` [CBK174054]: the viability at 28.5 h, 10 µM worked out at 98.7%.
Turning to `Cc1ccc(NC(=O)c2ccncc2)cc1C` [CBK174646], the viability at 28.5 h, 10 µM was 97.5%.
Consider `CCN1CCC[C@@H]1CNC(=O)c1ccncc1` [CBK174659], for which the viability at 28.5 h, 10 µM is 113%.
Turning to `CCN1CCC[C@@H]1CNC(=O)c1cc(Cl)nc(OC)c1` [CBK174692], the viability at 28.5 h, 10 µM was found to be 88.3%.
In the case of `CNc1nc(NC(C#N)c2ccccc2)ncc1N` (centres unmarked) [CBK174783], the viability at 28.5 h, 10 µM stood at 107%.
For `COCC(=O)N1CCC(NC(=O)N(CCc2ccccc2)Cc2ccccc2)CC1` [CBK174877], the viability at 28.5 h, 10 µM was 102%.
Turning to `COc1cccc(CSc2ccc(CN3CCOCC3)cc2F)c1` [CBK174976], the viability at 28.5 h, 10 µM turned out to be 87.1%.
For the molecule `CC(=O)c1ccc(NC(=O)Nc2nnc(CCN3CCCC3)s2)cc1` [CBK174990], the viability at 28.5 h, 10 µM is 92.6%.
Take `CN(C)C(=O)c1ccc(-c2cnc(OCC3CCN(C(=O)OC(C)(C)C)CC3)cn2)cc1F` [CBK175076]: the viability at 28.5 h, 10 µM was determined as 118%.
As to `Cc1cc(C(=O)NCCO)ccc1Br` [CBK175092], the viability at 28.5 h, 10 µM was 92%.
As to `O=C(O)CCc1cccnc1` [CBK175283], the viability at 28.5 h, 10 µM came to 92.2%.
Consider `CC(C)(C)c1csc(NC(=O)C2CC(=O)N(c3cccc(C(F)(F)F)c3)C2)n1` (centres unmarked) [CBK175545], for which the viability at 28.5 h, 10 µM was determined as 106%.
In the case of `CC(C)(C)c1csc(NC(=O)C2CC(=O)N(Cc3cccs3)C2)n1` (centres unmarked) [CBK175547], the viability at 28.5 h, 10 µM worked out at 109%.
On the same count and under the same terms, next, `Brc1cccc(OCc2cccs2)c1` [CBK176011]: 99%.
With `Clc1cncc(OCCCCOc2ccccc2)n1` [CBK176018], the viability at 28.5 h, 10 µM was 108%.
On the same count and under the same terms, next, `Fc1ccccc1CCOc1cncc(Cl)n1` [CBK176038]: 86%; `Clc1cncc(OC(c2ccccc2)C2CC2)n1` (centres unmarked) [CBK176042]: 78%.
The same measure, in the same setting: next, `COc1ccc2cc(OCCO)ccc2c1` [CBK176054]: 63.6%; `COc1cccc(COc2cncc(Cl)n2)c1OC` [CBK176057]: 86.3%; `COc1ccc(-c2cnccc2-n2ccnc2)cn1` [CBK177147]: 113%.
Consider `CCc1ccc(-c2cnccc2-n2ccnc2)cc1` [CBK177151], for which the viability at 28.5 h, 10 µM was determined as 93%.
Still for that read-out and setting: next, `COc1ccccc1-c1cnccc1-n1ccnc1` [CBK177153]: 100%; `c1ccc(OCCOc2cccnc2N2CCNCC2)cc1` [CBK200000C]: 90.1%.
For `O=C1CCc2cccc(OCCOc3nccnc3N3CCNCC3)c21` [CBK200001G], the viability at 28.5 h, 10 µM is 101%.
With `FC(F)(F)c1ccc(N2CCNCC2)nc1OCCOc1ccc2ccccc2c1` [CBK200002A], the viability at 28.5 h, 10 µM came out at 92.1%.
On to `c1ccc2c(c1)CCC2Oc1cncc(N2CCNCC2)n1` (centres unmarked) [CBK200005G], for which the viability at 28.5 h, 10 µM worked out at 91%.
The same measure, in the same setting: next, `C(#Cc1csc(COc2cncc(N3CCNCC3)n2)c1)c1ccccc1` [CBK200006G]: 92.5%; `c1cncc(CNc2cccc(OCCOc3nccnc3N3CCNCC3)c2)c1` [CBK200008]: 89.2%.
With `N#Cc1ccccc1Cn1ccc2c(N3CCNCC3)cccc21` [CBK200015C], the viability at 28.5 h, 10 µM worked out at 102%.
Consider `O=S(=O)(Cc1ccccc1)c1cc2c(N3CCNCC3)nccc2s1` [CBK200017C], for which the viability at 28.5 h, 10 µM amounted to 91.9%.
Still for that read-out and setting: next, `CC(C)(C)c1ccccc1[S+]([O-])c1cc2c(N3CCNCC3)nccc2s1` (centres unmarked) [CBK200018C]: 103%; `O=C(O)c1ccc(NS(=O)(=O)c2ccc(Cl)cc2)cc1O` [CBK200023]: 106%.
The same measure, in the same setting: next, `CC1(C)CC(=O)c2sc(NS(=O)(=O)c3sc(Cl)cc3Br)nc2C1` [CBK200029]: 109%; `COc1ccc2c(c1)CCc1sc(NS(=O)(=O)c3cccc(Cl)c3C)nc1-2` [CBK200033]: 84.3%; `Cc1cc(Cl)cc(Cl)c1S(=O)(=O)Nc1nc2c(s1)C(=O)CC(C)(C)C2` [CBK200034]: 104%.
Turning to `C=CCN(c1ccccc1)S(=O)(=O)c1ccc(C(C)(C)CC)cc1` [CBK200036], the viability at 28.5 h, 10 µM stood at 95.7%.
Consider `CCC(C)(C)c1ccc(S(=O)(=O)Nc2ccc(F)cc2F)cc1` [CBK200039], for which the viability at 28.5 h, 10 µM is 95.7%.
Turning to `CC(=O)c1sccc1NS(=O)(=O)c1ccc2ccccc2c1` [CBK200042], the viability at 28.5 h, 10 µM amounted to 89.5%.
Regarding `Cc1c(Cl)cccc1S(=O)(=O)NC1=NC(=O)C(CC(=O)Nc2ccccc2Cl)S1` (centres unmarked) [CBK200043], the viability at 28.5 h, 10 µM came to 107%.
Same read-out and setting: next, `CCOC(=O)C1CCN(S(=O)(=O)c2ccc(C(C)C)cc2)CC1` [CBK200044]: 86.4%; `O=[N+]([O-])c1ccc(S(=O)(=O)Nc2nnc(Cc3ccc(Cl)cc3)s2)cc1` [CBK200046]: 93.2%; `O=S(=O)(Nc1nnc(C(F)(F)F)s1)c1ccc(Br)cc1` [CBK200047]: 89.6%.
For the molecule `O=S(=O)(Nc1nnc(Cc2ccc(Cl)cc2)s1)c1ccc(Cl)cc1` [CBK200048], the viability at 28.5 h, 10 µM amounted to 90.2%.
On the same count and under the same terms, next, `Cc1c(Cl)cccc1S(=O)(=O)Nc1nc(C(C)Sc2nccn2C)ns1` (centres unmarked) [CBK200052]: 88.5%.

Still in this data set, the particulars now being: human, hela cells, % viability, bulk resorufin, single well.
In the case of `CCOC(=O)N1CCC2(CC1)OCc1ccc(Oc3ccncc3)cc1O2` [CBK174776], the viability at 28.5 h, 10 µM amounted to 102%.
Same read-out and setting: next, `CCOC(=O)N1CCC2(CC1)OCc1ccc(-c3ccc(S(C)(=O)=O)nc3)cc1O2` [CBK174780]: 92%.

One may read the viability as a read-out of living cells in per cent, often relative to untreated cells.
